Experimental data taken from the supplement of paper PMC13380429.

Columns and labels:
[1] = system: A549-ACE2 infected with SARS-CoV-2; test: cell count relative to DMSO; higher = less toxic; details: 24 h
Caco-2 [2] = test: cell viability relative to DMSO; higher = less toxic; details: 72 h
Calu-3 [3] = test: as above; details: 72 h
HepG2 [4] = test: as above; details: 72 h
U2OS [5] = test: as above; details: 72 h
Vero E6 [6] = test: as above; details: 72 h
[7] = system: A549-ACE2 infected with SARS-CoV-2; test: SARS-CoV-2 infection rate relative to DMSO; higher = more infection; details: 24 h
A549-ACE2 [8] = test: phospholipidosis EC50; higher = less potent phospholipidosis inducer
A549-ACE2 [9] = test: drug-induced phospholipidosis relative to tamoxifen; higher = more phospholipidosis
[10] = system: A549-ACE2 infected with SARS-CoV-2; test: morphology score (similarity to uninfected cells); higher = more like uninfected cells; details: 24 h
Caco-2 [11] = test: relative viability EC50 (midpoint between 100% and the lowest measured viability); higher = less toxic; details: 72 h
Calu-3 [12] = test: as above; details: 72 h
HepG2 [13] = test: as above; details: 72 h
U2OS [14] = test: as above; details: 72 h
Vero E6 [15] = test: as above; details: 72 h
Caco-2 [16] = test: drug sensitivity score (DSS) for viability; higher = more toxic; extreme values may be limits of the assay; details: 72 h
Calu-3 [17] = test: as above; details: 72 h
HepG2 [18] = test: as above; details: 72 h
U2OS [19] = test: as above; details: 72 h
Vero E6 [20] = test: as above; details: 72 h

COc1cc2c(NC3CCN(C(C)C)CC3)nc(C3CCCCC3)nc2cc1OCCCN1CCCC1 [UNC0638]
Details	SARS-CoV-2 infection rate [%]	cell count [%]	cell viability [%]	morphology score	phospholipidosis EC50 [µM]
A549-ACE2 [8], 24 h	–	–	–	–	0.85
A549-ACE2 [8], 48 h	–	–	–	–	0.916
A549-ACE2 [8], 72 h	–	–	–	–	2.15
Caco-2 [2], 1 nM	–	–	99.2	–	–
Caco-2 [2], 10 nM	–	–	95.3	–	–
Caco-2 [2], 100 nM	–	–	98.5	–	–
Caco-2 [2], 1000 nM	–	–	96.7	–	–
Caco-2 [2], 10000 nM	–	–	90.3	–	–
Calu-3 [3], 1 nM	–	–	108	–	–
Calu-3 [3], 10 nM	–	–	106	–	–
Calu-3 [3], 100 nM	–	–	105	–	–
Calu-3 [3], 1000 nM	–	–	109	–	–
Calu-3 [3], 10000 nM	–	–	14.4	–	–
HepG2 [4], 1 nM	–	–	91.9	–	–
HepG2 [4], 10 nM	–	–	103	–	–
HepG2 [4], 100 nM	–	–	107	–	–
HepG2 [4], 1000 nM	–	–	114	–	–
HepG2 [4], 10000 nM	–	–	28.9	–	–
U2OS [5], 1 nM	–	–	103	–	–
U2OS [5], 10 nM	–	–	104	–	–
U2OS [5], 100 nM	–	–	99.7	–	–
U2OS [5], 1000 nM	–	–	98.5	–	–
U2OS [5], 10000 nM	–	–	79.5	–	–
Vero E6 [6], 1 nM	–	–	104	–	–
Vero E6 [6], 10 nM	–	–	106	–	–
Vero E6 [6], 100 nM	–	–	101	–	–
Vero E6 [6], 1000 nM	–	–	99.2	–	–
Vero E6 [6], 10000 nM	–	–	91.5	–	–
[1], 0.3 µM	–	104	–	–	–
[1], 3 µM	–	120	–	–	–
[1], 10 µM	–	120	–	–	–
[1], 30 µM	–	85	–	–	–
[7], 0.3 µM	92	–	–	–	–
[7], 3 µM	21	–	–	–	–
[7], 10 µM	13	–	–	–	–
[7], 30 µM	37	–	–	–	–
[10], 0.3 µM	–	–	–	0.28	–
[10], 3 µM	–	–	–	0.76	–
[10], 10 µM	–	–	–	0.07	–
[10], 30 µM	–	–	–	-0.22	–

drug-induced phospholipidosis [%], A549-ACE2 [9]
Details	0.3 µM	0.833333 µM	3.33333 µM	6.66667 µM	10 µM	30 µM
24 h	19	47.5	80.5	93.8	106	38.3
48 h	20.5	48.8	76.7	97.3	89.8	–
72 h	16	32	73.7	84.2	95.7	–

Details	drug sensitivity score	relative viability EC50 [µM]
Caco-2 [11]	–	> 10
Caco-2 [16]	0	–
Calu-3 [12]	–	3.67
Calu-3 [17]	4.1	–
HepG2 [13]	–	3.92
HepG2 [18]	3.1	–
U2OS [14]	–	> 10
U2OS [19]	0.8	–
Vero E6 [15]	–	> 10
Vero E6 [20]	0	–
